Drawing on US11365193B2, “Oxadiazole compound and fungicide for agricultural and horticultural use” (Nippon Soda Co., Ltd., priority 2017, dated 2022), this text covers melting point for 64 compounds.

Structures are written as SMILES.

For `O=c1ccccn1-c1ccc(-c2noc(C(F)(F)F)n2)cc1` [Compound 1-2], the melting point (in general, the temperature, or range, at which the solid turns liquid) was 130 to 133 °C.

The compound `O=c1c2ccccc2ncn1Cc1ccc(-c2noc(C(F)(F)F)n2)cc1` [Compound 1-3] came in with a melting point of 178 to 180 °C.

`O=c1c2ccccc2ncn1-c1ccc(-c2noc(C(F)(F)F)n2)cc1` [Compound 1-4] returned a melting point of 233 to 235 °C.

Compound `O=c1cccnn1-c1ccc(-c2noc(C(F)(F)F)n2)cc1` [Compound 1-5] registered a melting point of 97 to 100 °C.

Compound `O=c1cc2ccccc2cn1Cc1ccc(-c2noc(C(F)(F)F)n2)cc1` [Compound 1-6] showed a melting point of 165 to 168 °C.

Compound `Cc1ccn(-c2ccc(-c3noc(C(F)(F)F)n3)cc2)c(=O)c1` [Compound 1-8] came in with a melting point of 151 to 154 °C.

Consider `Cc1ccc(=O)n(-c2ccc(-c3noc(C(F)(F)F)n3)cc2)n1` [Compound 1-9], for which the melting point fell in the range of 78 to 83 °C.

`O=c1c2ccccc2cnn1-c1ccc(-c2noc(C(F)(F)F)n2)cc1` [Compound 1-10]: the melting point lay in the range of 141 to 144 °C.

With `O=c1c2ccccc2cnn1Cc1ccc(-c2noc(C(F)(F)F)n2)cc1` [Compound 1-11], the melting point lay in the range of 133 to 136 °C.

Turning to `O=c1cccnn1CC1(c2ccc(-c3noc(C(F)(F)F)n3)cc2)OCCO1` [Compound 1-14], the melting point was in the range of 105 to 107 °C.

`O=C(Cn1ncccc1=O)c1ccc(-c2noc(C(F)(F)F)n2)cc1` [Compound 1-15] displayed a melting point of 122 to 125 °C.

As to `CSc1cnn(-c2ccc(-c3noc(C(F)(F)F)n3)cc2)c(=O)c1` [Compound 1-16], the melting point fell in the range of 151 to 153 °C.

In the case of `C[S+]([O-])c1cnn(-c2ccc(-c3noc(C(F)(F)F)n3)cc2)c(=O)c1` (stereo not shown) [Compound 1-17], the melting point was 145 to 147 °C.

Take `CS(=O)(=O)c1cnn(-c2ccc(-c3noc(C(F)(F)F)n3)cc2)c(=O)c1` [Compound 1-18]: the melting point fell in the range of 186 to 188 °C.

Turning to `Cc1noc2cnn(Cc3ccc(-c4noc(C(F)(F)F)n4)cc3)c(=O)c12` [Compound 1-21], the melting point was in the range of 158 to 160 °C.

The compound `Cc1nn(C)c2cnn(Cc3ccc(-c4noc(C(F)(F)F)n4)cc3)c(=O)c12` [Compound 1-22] showed a melting point of 187 to 190 °C.

Regarding `Cc1nc2c(cnn2C)c(=O)n1Cc1ccc(-c2noc(C(F)(F)F)n2)cc1` [Compound 1-23], the melting point was in the range of 118 to 120 °C.

Regarding `Cn1ncc2c(=O)n(Cc3ccc(-c4noc(C(F)(F)F)n4)cc3)cnc21` [Compound 1-24], the melting point was 225 to 228 °C.

As to `O=c1c2c(ncn1Cc1ccc(-c3noc(C(F)(F)F)n3)cc1)CCC2` [Compound 1-25], the melting point lay within 165 to 168 °C.

Turning to `O=c1c2c(ncn1Cc1ccc(-c3noc(C(F)(F)F)n3)cc1)CCCC2` [Compound 1-26], the melting point lay within 157 to 160 °C.

In turn, `O=C(C(=NOCC(F)(F)F)c1ccc(-c2noc(C(F)(F)F)n2)cc1)n1ncccc1=O` [Compound 1-29] gave a melting point of 82 to 98 °C.

The compound `Cc1nn(C)c2nc(C)n(Cc3ccc(-c4noc(C(F)(F)F)n4)cc3)c(=O)c12` [Compound 1-30] registered a melting point of 163 to 166 °C.

Consider `O=c1cc2c(nn1Cc1ccc(-c3noc(C(F)(F)F)n3)cc1)CCC2` [Compound 1-31], for which the melting point is 94 to 97 °C.

`O=c1c2c(cnn1Cc1ccc(-c3noc(C(F)(F)F)n3)cc1)OCCC2` [Compound 1-32] displayed a melting point of 87 to 89 °C.

`O=c1cccnn1CCc1ccc(-c2noc(C(F)(F)F)n2)cc1` [Compound 1-33] displayed a melting point of 74 to 80 °C.

Regarding `Cc1nc2c(c(=O)n1Cc1ccc(-c3noc(C(F)(F)F)n3)cc1)CCCC2` [Compound 1-34], the melting point lay within 132 to 135 °C.

As to `O=c1cccnn1CC(O)c1ccc(-c2noc(C(F)(F)F)n2)cc1` (stereo not shown) [Compound 1-36], the melting point lay within 119 to 121 °C.

Take `CON=CCOc1ncn(Cc2ccc(-c3noc(C(F)(F)F)n3)cc2)c(=O)c1Cl` [Compound 1-37]: the melting point lay in the range of 201 to 203 °C.

Take `CON=CCOc1cc(=O)n(Cc2ccc(-c3noc(C(F)(F)F)n3)cc2)cn1` [Compound 1-38]: the melting point lay in the range of 143 to 148 °C.

For `CCON=CCOc1cc(=O)n(Cc2ccc(-c3noc(C(F)(F)F)n3)cc2)cn1` [Compound 1-40], the melting point was 139 to 142 °C.

Turning to `COCCON=CCOc1cc(=O)n(Cc2ccc(-c3noc(C(F)(F)F)n3)cc2)cn1` [Compound 1-41], the melting point lay within 94 to 96 °C.

In turn, `O=c1cc(OCC=NOC2CCCCO2)ncn1Cc1ccc(-c2noc(C(F)(F)F)n2)cc1` (stereo not shown) [Compound 1-42] displayed a melting point of 103 to 106 °C.

Consider `O=c1cc(OCC=NOCc2ccccc2)ncn1Cc1ccc(-c2noc(C(F)(F)F)n2)cc1` [Compound 1-44], for which the melting point is 78 to 80 °C.

Take `O=c1cc(OCC=NOCC(F)F)ncn1Cc1ccc(-c2noc(C(F)(F)F)n2)cc1` [Compound 1-45]: the melting point was in the range of 111 to 115 °C.

In turn, `N#CCON=CCOc1cc(=O)n(Cc2ccc(-c3noc(C(F)(F)F)n3)cc2)cn1` [Compound 1-46] came in with a melting point of 131 to 133 °C.

For `Cl.O=c1c2c(ncn1Cc1ccc(-c3noc(C(F)(F)F)n3)cc1)CNCC2` [Compound 1-47], the melting point is 192 to 195 °C.

In turn, `O=c1cc(N2CCOCC2)ncn1Cc1ccc(-c2noc(C(F)(F)F)n2)cc1` [Compound 1-52] gave a melting point of 235 to 237 °C.

As for `CON=C1CN(C(=O)c2ccc(-c3noc(C(F)(F)F)n3)cc2)C1` [Compound 2], the melting point is 162 to 165 °C.

`CCON=C1CN(C(=O)Cc2ccc(-c3noc(C(F)(F)F)n3)cc2)C1` [Compound 5] came in with a melting point of 130 to 134 °C.

As for `CCON=C1CCN(C(=O)Cc2ccc(-c3noc(C(F)(F)F)n3)cc2)CC1` [Compound 6], the melting point lay in the range of 86 to 88 °C.

Compound `CON=C1CN(C(=O)Cc2ccc(-c3noc(C(F)(F)F)n3)cc2)C1` [Compound 7] returned a melting point of 172 to 176 °C.

`CON=C1CCN(C(=O)Cc2ccc(-c3noc(C(F)(F)F)n3)cc2)CC1` [Compound 8] returned a melting point of 73 to 76 °C.

`O=C(Cc1ccc(-c2noc(C(F)(F)F)n2)cc1)N1CC(=NOCC(F)(F)F)C1` [Compound 9] displayed a melting point of 126 to 129 °C.

`O=C(Cc1ccc(-c2noc(C(F)(F)F)n2)cc1)N1CCC(=NOCC(F)(F)F)CC1` [Compound 10] gave a melting point of 84 to 86 °C.

For `CCON=C1CCN(C(=O)Cc2cccc(-c3noc(C(F)(F)F)n3)c2)CC1` [Compound 11], the melting point lay within 83 to 86 °C.

On to `CCSCON=C1CN(C(=O)Cc2ccc(-c3noc(C(F)(F)F)n3)cc2)C1` [Compound 12], for which the melting point was in the range of 73 to 75 °C.

As to `O=C(Cc1ccc(-c2noc(C(F)(F)F)n2)cc1)N1CCC(=NOC2CCCCO2)CC1` (stereo not shown) [Compound 15], the melting point was in the range of 104 to 106 °C.

`O=C(Cc1ccc(-c2noc(C(F)(F)F)n2)cc1)N1CC(=NOC2CCCCO2)C1` (stereo not shown) [Compound 16] showed a melting point of 82 to 83 °C.

`O=C(Cc1ccc(-c2noc(C(F)(F)F)n2)cc1)N1CC(=NOCc2ccccc2)C1` [Compound 17]: the melting point was in the range of 139 to 140 °C.

For `COCCON=C1CN(C(=O)Cc2ccc(-c3noc(C(F)(F)F)n3)cc2)C1` [Compound 19], the melting point lay within 114 to 116 °C.

On to `N#CCON=C1CCN(C(=O)Cc2ccc(-c3noc(C(F)(F)F)n3)cc2)CC1` [Compound 20], for which the melting point fell in the range of 126 to 128 °C.

In turn, `N#CCON=C1CN(C(=O)Cc2ccc(-c3noc(C(F)(F)F)n3)cc2)C1` [Compound 21] returned a melting point of 125 to 126 °C.

The compound `CC(C)ON=C1CCN(C(=O)Cc2ccc(-c3noc(C(F)(F)F)n3)cc2)CC1` [Compound 22] came in with a melting point of 96 to 100 °C.

`O=C(Cc1ccc(-c2noc(C(F)(F)F)n2)cc1)N1CCC(=NO)CC1` [Compound 25] had a melting point of 191 to 192 °C.

On to `N#CCCON=C1CCN(C(=O)Cc2ccc(-c3noc(C(F)(F)F)n3)cc2)CC1` [Compound 26], for which the melting point lay in the range of 71 to 72 °C.

`CSCCON=C1CCN(C(=O)Cc2ccc(-c3noc(C(F)(F)F)n3)cc2)CC1` [Compound 27] gave a melting point of 68 to 69 °C.

`CCON=C1CN(C(=O)C(=O)c2ccc(-c3noc(C(F)(F)F)n3)cc2)C1` [Compound 30] registered a melting point of 139 to 141 °C.

For the compound `CCON=C1CN(C(=O)C(=NOC)c2ccc(-c3noc(C(F)(F)F)n3)cc2)C1` [Compound 31], the melting point was 147 to 149 °C.

Regarding `CCON=C1CCN(C(=O)Cc2ccc(-c3noc(C(F)(F)F)n3)cc2)CC1SC` (stereo not shown) [Compound 32], the melting point fell in the range of 80 to 82 °C.

Regarding `CON=C1CCN(C(=O)Cc2ccc(-c3noc(C(F)(F)F)n3)cc2)CC1SC` (stereo not shown) [Compound 33], the melting point was 120 to 121 °C.

Compound `CCON=C1CCN(C(=O)Cc2ccc(-c3noc(C(F)(F)F)n3)cc2)CC1S(C)(=O)=O` (stereo not shown) [Compound 34] yielded a melting point of 128 to 130 °C.

`O=C(Cc1ccc(-c2noc(C(F)(F)F)n2)cc1)N1CC(=NOCC(F)F)C1` [Compound 41] returned a melting point of 140 to 141 °C.

Consider `CCON=C1CN(C(=O)C(SC)c2ccc(-c3noc(C(F)(F)F)n3)cc2)C1` (stereo not shown) [Compound 44], for which the melting point is 108 to 110 °C.

On to `CCCON=C1CN(C(=O)C(SCC)c2ccc(-c3noc(C(F)(F)F)n3)cc2)C1` (stereo not shown) [Compound 45], for which the melting point was in the range of 83 to 85 °C.
